The results in this text go back to PubChem BioAssay AID179 (DTP/NCI, 2004).

The assay relates to CEM cells HIV-1 protection, formazan growth assay. The experiment in a line: NCI AIDS Antiviral Assay. The conditions noted are these: for IC50: measured here: growth of uninfected CEM cells. In outline:
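Protection of CEM cells against HIV-1 was scored from cell growth (soluble formazan) across five concentrations, with parallel uninfected cells. Lack of protection may reflect toxicity.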

Activity calls are given as the source filed them.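 Rule for the calls: active = compounds giving half or more protection of infected cells from virus-caused growth loss, again on retest; inactive = the rest.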

With `COc1ccc2nc3ccccc3c(NCCN(C)CCCl)c2c1`, the EC50 was above 20 µM and the IC50 amounted to 1.32 µM.

For the compound `O=C(NCc1ccc(Cl)c(Cl)c1)c1nc2ccccc2nc1NCc1ccc(Cl)c(Cl)c1`, the EC50 was above 126 µM and the IC50 was 55 µM.

On to `N#Cc1nc(-c2cnccn2)oc1N`, for which the EC50 is above 200 µM and the IC50 was 182 µM.

As for `COc1cccc2c(=O)c3ccccc3oc12`, the EC50 was above 200 µM and the IC50 was above 200 µM.

As for `O=C(N/N=C/c1ccc(O)c(S(=O)(=O)O)c1)C(=O)N/N=C/c1ccc(O)c(S(=O)(=O)O)c1`, the EC50 was above 100 µM and the IC50 was above 100 µM.

Take `CCOc1ccc(/C(Cl)=C(\C=O)c2ccc(OC)c(OC)c2)cc1OCC`: the EC50 is above 25.7 µM and the IC50 was determined as 14.1 µM.

Take `CCOC(=O)/C(=C/c1cn(C(C)=O)c2ccccc12)P(C)(=O)OCC` (centres undefined): the EC50 was above 200 µM and the IC50 was 37.2 µM.

As to `COc1ccc(/C=C(/C#N)c2ccccc2)cc1`, the EC50 was above 200 µM and the IC50 is 2.09 µM.

Regarding `CC1C(=O)OC2CCC3(C)C(=O)OC4OC5(c6ccoc6)CC1(O)C2(C)C43O5` (centres undefined), the EC50 is above 200 µM and the IC50 was above 200 µM.

With `CCOC(=O)/C(=N\OC)C(O)C(F)(F)F` (centres undefined), the EC50 was above 200 µM and the IC50 was above 200 µM.

`Cc1ccc(C2=Nc3cc(C)c(Cl)cc3S(=O)(=O)NN2)cc1`: the EC50 was 34.7 µM and the IC50 is 87.1 µM.

For `N.N.N.N.N.N.[Br-].[Co+3]`, the result was inactive.

As for `COc1ccc(C2=C/C(=C3\C(=O)Oc4ccccc4C3=O)SS2)cc1`, the EC50 is above 200 µM and the IC50 is above 200 µM.

With `CC(NC(=O)C(N)CC(=O)O)NC(=O)C1CCC1` (centres undefined), the EC50 was above 200 µM and the IC50 was above 200 µM.

For the compound `OC(c1ccsc1)c1cc2ccccc2s1` (centres undefined), the EC50 is above 200 µM and the IC50 came to 107 µM.

Consider `COC1=C(C)C(=O)C(=O)c2c(C)ccnc21`, for which the result was inactive.

Take `Cc1cn2c(C)csc2c1P(=O)(OC(C)C)OC(C)C`: the EC50 was above 200 µM and the IC50 stood at 158 µM.

As to `c1ccc(N2CCN(c3ccccn3)CC2)nc1`, the EC50 is above 100 µM and the IC50 was above 100 µM.

For the compound `CCCCCCCCCCCCOC(=N)N1CCOCC1`, the EC50 is above 91.2 µM and the IC50 came to 4.47 µM.

For `CC(C)OCN1COCN=C1NC#N`, the EC50 is above 447 µM and the IC50 was above 447 µM.

For the compound `COc1cc(C(c2ccc3c(c2)OCO3)C2SCCCS2)cc(OC)c1OC` (centres undefined), the EC50 is above 200 µM and the half-maximal inhibitory concentration (IC50) was determined as 0.871 µM.

For the compound `O=c1/c(=C/c2ccc(Cl)cc2)sc2nc(-c3ccccc3)nn12`, the EC50 is above 200 µM and the IC50 is above 200 µM.

For the compound `COc1ccc(Br)c(C(=O)N2CCc3ccccc32)c1N`, the outcome was inactive.

As for `CCC(=O)CCCC=C(c1cc(Cl)c(OC)c(CO)c1)c1cc(Cl)c(OC)c(CO)c1`, the EC50 was above 200 µM and the IC50 amounted to 14.1 µM.

For `O=Cc1ccc(C(F)(F)F)cc1.[C-]#[O+].[C-]#[O+].[C-]#[O+].[Cr]`, the EC50 was above 20 µM and the IC50 came out at 3.98 µM.

On to `Nc1ncnc2c1ncn2C1OC(COP(=O)(O)O)C(O)C1O` (centres undefined), for which the EC50 is above 200 µM and the 50% inhibitory concentration (IC50) was above 200 µM.

As to `O=C(O)CCC(=O)c1ccc2oc3ccccc3c2c1`, the EC50 was above 200 µM and the IC50 is above 200 µM.

On to `CCOC(=O)CC1(c2ccccc2)OC(=O)c2ccccc21` (centres undefined), for which the result was inactive.

For `CCCC1CC(=O)NC(=O)C1C(=O)OC(C)(C)C` (centres undefined), the EC50 was above 200 µM and the IC50 is above 200 µM.

Regarding `Cc1nn(C(=O)CC(=O)Nc2ccccc2)c(C)c1N=Nc1ccccc1F`, the result was inactive.

As to `CSc1cnn(CCC#N)c(=O)n1`, the EC50 was above 200 µM and the concentration for half-maximal inhibition (IC50) came to 36.3 µM.

Take `[C-]#[O+].[C-]#[O+].[C-]#[O+].[Cr].c1ccc(P(CC[PH+](CC[PH+](CC[PH+](c2ccccc2)c2ccccc2)c2ccccc2)c2ccccc2)c2ccccc2)cc1` (centres undefined): the EC50 is above 4.68 µM and the IC50 is above 4.68 µM.

`COc1ccc(/C(CC2OC(=O)c3ccccc32)=N\NC(N)=O)cc1` (centres undefined): the EC50 is above 339 µM and the IC50 was above 339 µM.

For the compound `COc1ccc(N2C(=O)C3c4[nH]c5ccc([N+](=O)[O-])cc5c4C4CCC(C(C)(C)C)CC4C3C2=O)cc1` (centres undefined), the EC50 is above 200 µM and the IC50 stood at 18.2 µM.

Regarding `CC1=C(C(N)=O)C(c2ccncc2)C(C#N)C(=O)N1` (centres undefined), the EC50 is above 200 µM and the IC50 came to 145 µM.

As to `O=C(O)c1cc2ccccc2c(=O)s1`, the EC50 was above 331 µM and the half-maximal inhibitory concentration (IC50) is above 331 µM.

`CC[C@@H](C)C(=O)O[C@@H]1CC[C@]2(CO2)C2(COC(C)=O)C(OC(C)=O)CC(C)[C@](C)(C[C@H](O)C3=CC(=O)OC3)[C@@H]12` (some centres undefined): the outcome was inactive.

As to `CCOc1ccc(/C=C(\Cl)c2ccc(OC)c(OC)c2)cc1`, the EC50 is above 200 µM and the IC50 was determined as 191 µM.

Turning to `CCc1ccc(C2=C(O)C(=O)C(c3ccccc3)=C(O)C2=O)cc1`, the EC50 was above 87.1 µM and the 50% inhibitory concentration (IC50) is 44.7 µM.

Consider `CCOC(=O)c1ccc(/C(C)=N/NC(N)=S)cc1`, for which the outcome was inactive.

In the case of `CCOC(=O)Oc1ccc2[nH]c3c(C)cc(N)c(C)c3c2c1`, the EC50 was above 93.3 µM and the IC50 was 39.8 µM.

Turning to `COc1cccc2c(N)c3cccc(C(=O)NCCN(C)C)c3nc12`, the EC50 is above 0.2 µM and the IC50 turned out to be 0.0331 µM.

Consider `COc1cc(C(C)=O)cc(C(=O)N(C(C)C)C(C)C)c1[Si](C)(C)C`, for which the EC50 was above 100 µM and the IC50 was above 100 µM.

Take `Cc1nnc2sc(C(=O)O)nn12`: the EC50 is above 200 µM and the IC50 was above 200 µM.

In the case of `CC(=O)N1CC2(CN(C(C)=O)CC3(C1)OCCO3)OCCO2`, the EC50 was above 200 µM and the IC50 was above 200 µM.

As for `C/C(=N\NS(=O)(=O)c1c(C)cc(C)cc1C)c1ccc[n+]([O-])n1`, the outcome was inactive.

For `CC(=O)Nc1ccc(C(=O)NN2C(=O)CSC2c2ccc(O)cc2)cc1` (centres undefined), the EC50 was above 36.3 µM and the IC50 was above 36.3 µM.

For `CC(C)NC(=O)OCc1nnn2c1C(OC(=O)NC(C)C)CC2` (centres undefined), the result was inactive.

As to `O=C1C2=Cc3ccccc3OC2(O)Oc2cc(O)cc(O)c21` (centres undefined), the EC50 is above 200 µM and the IC50 worked out at 91.2 µM.

Consider `S=C(Nc1ccc(Br)cn1)NC12CC3CC(CC(C3)C1)C2`, for which the EC50 is above 200 µM and the IC50 was 69.2 µM.

`COc1ccc(S(=O)(=O)O)cc1C(=O)c1cc(S(=O)(=O)O)ccc1OC`: the EC50 was above 575 µM and the IC50 was above 575 µM.

Turning to `Nc1ccc(Nc2cc(=O)[nH]c(=O)[nH]2)cc1`, the EC50 was above 200 µM and the IC50 is above 200 µM.

As to `CP(=O)(O)C(N)Cc1c[nH]c2ccccc12` (centres undefined), the EC50 is above 100 µM and the IC50 was above 100 µM.

`CN(C)C=Nc1ccc2nonc2c1`: the EC50 was above 200 µM and the IC50 was found to be 151 µM.

Consider `O=c1oc2ccccc2c(O)c1C(c1ccc2c(c1)OCO2)N1CCCC1` (centres undefined), for which the EC50 is above 200 µM and the IC50 came out at 93.3 µM.

As to `S=C(N1CCN(c2ccc(Cl)c(Cl)c2)CC1)N1CCN(c2ccc(Cl)c(Cl)c2)CC1`, the EC50 is above 200 µM and the IC50 is 10 µM.

Turning to `CC(=O)OCC1CCC(=C2C(=O)OC(C)(C)OC2=O)N1` (centres undefined), the EC50 was above 200 µM and the IC50 is above 200 µM.

As to `[Cu+2].[NH-]c1ccccc1C(=O)O.[NH-]c1ccccc1C(=O)O`, the EC50 is above 200 µM and the IC50 was 17.4 µM.

For `COC(=O)C1=C(N2CCCC2)C2c3ccccc3SC12C(=O)OC` (centres undefined), the EC50 was 5.75 µM and the IC50 was 55 µM.

For the compound `N#CC(/C(CCCC(=O)Nc1cccc([N+](=O)[O-])c1)=N\NC(=O)c1c(O)ccc2ccccc12)c1nc2ccccc2s1` (centres undefined), the outcome was inactive.

Take `NS(=O)(=O)c1cc2c(cc1Cl)NC=NS2(=O)=O`: the EC50 is above 851 µM and the IC50 was above 851 µM.

For the compound `COc1cc(NC(C)=O)c2[nH]c3c(C)cc(NC(C)=O)c(C)c3c2c1`, the outcome was inactive.

Turning to `O=S(O)CCCSSc1ccccc1`, the result was inactive.

With `Clc1ccc2c(c1)C1C(CO2)C(c2ccccc2)=NN1c1ccccc1` (centres undefined), the EC50 is above 27.5 µM and the IC50 is above 27.5 µM.

On to `CC(C)(C)C1COP(=O)(OCc2ccccc2)OC1` (centres undefined), for which the EC50 was above 631 µM and the IC50 was above 631 µM.

Take `CC1CC(=O)Nc2ccccc2N1` (centres undefined): the EC50 is above 200 µM and the IC50 was above 200 µM.

Turning to `CC12CC3(C)SC(C)(CC(C)(S1)S2)S3`, the outcome was inactive.

With `n1onc2c1NC1Nc3nonc3NC1N2` (centres undefined), the EC50 is above 200 µM and the IC50 is above 200 µM.

Consider `O=[N+]([O-])c1cccc(/C=N/Nc2ccc(S(=O)(=O)O)cc2)c1`, for which the EC50 was above 724 µM and the IC50 stood at 646 µM.

For `O=C(O)c1cc2cc([N+](=O)[O-])ccc2oc1=O`, the EC50 is above 447 µM and the concentration for half-maximal inhibition (IC50) was above 447 µM.

Regarding `COc1cc(C2(O)c3ccccc3C3=NCCN32)cc(OC)c1OC` (centres undefined), the EC50 is above 200 µM and the IC50 is above 200 µM.

Regarding `COc1csc([C@H]2CCC3[C@@H]4CC=C5C[C@@H](O)CC[C@]5(C)C4CC[C@@]32C)n1` (some centres undefined), the EC50 was above 17.4 µM and the IC50 was above 17.4 µM.

On to `CC1CC[C@@]23CCC4(C)[C@@](C=CC5[C@@]6(C)CCC(=O)C(C)(C)C6CC[C@]54C)(OC2=O)[C@@H]3[C@H]1C` (some centres undefined), for which the outcome was inactive.

Regarding `COc1cc2c3c(c1)nnn3C(=O)C(c1ccccc1)S2` (centres undefined), the EC50 was above 200 µM and the IC50 was above 200 µM.

Consider `COC(=O)[C@]12CCC(=O)N1[C@H](C(=O)O)Cc1c2[nH]c2ccccc12`, for which the EC50 was above 200 µM and the IC50 was above 200 µM.

Regarding `O=C1CNC(=O)c2c(ncn2C2OC(CO)CC2O)N1` (centres undefined), the EC50 is above 302 µM and the IC50 is above 302 µM.

`COC(=O)/C(C#N)=C1\N=NNN1CCCc1ccccc1`: the outcome was inactive.
